The numbers were not newly measured in patent US20250100968A1, “BICYCLIC-HETEROCYCLE DERIVATIVES AND RELATED USES” (CENTESSA PHARMACEUTICALS (UK) LIMITED, priority 2022, published 2025), which cites them from elsewhere.

Data set [1] has as its target T1, OX2R (Homo sapiens, UniProt O43614).
T1 construct: host or cells: individuals with NT1
T1 sequence (O43614 1-444): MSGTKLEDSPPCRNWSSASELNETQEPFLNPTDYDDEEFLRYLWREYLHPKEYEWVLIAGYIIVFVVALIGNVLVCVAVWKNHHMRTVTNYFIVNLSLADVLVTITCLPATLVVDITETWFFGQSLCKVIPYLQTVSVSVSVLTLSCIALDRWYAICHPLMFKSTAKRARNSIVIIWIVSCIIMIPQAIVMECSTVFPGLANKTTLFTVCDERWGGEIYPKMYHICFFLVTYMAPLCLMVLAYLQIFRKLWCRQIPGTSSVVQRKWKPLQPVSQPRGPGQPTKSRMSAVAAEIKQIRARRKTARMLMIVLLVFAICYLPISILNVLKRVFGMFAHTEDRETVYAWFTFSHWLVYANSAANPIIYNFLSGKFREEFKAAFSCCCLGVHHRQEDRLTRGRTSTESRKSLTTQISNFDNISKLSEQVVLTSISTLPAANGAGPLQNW
Particulars: individuals with NT1; initial clinical studies; cited from earlier work.

Data set [2] deals with T2, OX2R (Mus musculus, UniProt P58308).
T2 construct: host or cells: mice (WT, orexin-deficient, orexin-neuron ablated)
T2 sequence (P58308 1-460): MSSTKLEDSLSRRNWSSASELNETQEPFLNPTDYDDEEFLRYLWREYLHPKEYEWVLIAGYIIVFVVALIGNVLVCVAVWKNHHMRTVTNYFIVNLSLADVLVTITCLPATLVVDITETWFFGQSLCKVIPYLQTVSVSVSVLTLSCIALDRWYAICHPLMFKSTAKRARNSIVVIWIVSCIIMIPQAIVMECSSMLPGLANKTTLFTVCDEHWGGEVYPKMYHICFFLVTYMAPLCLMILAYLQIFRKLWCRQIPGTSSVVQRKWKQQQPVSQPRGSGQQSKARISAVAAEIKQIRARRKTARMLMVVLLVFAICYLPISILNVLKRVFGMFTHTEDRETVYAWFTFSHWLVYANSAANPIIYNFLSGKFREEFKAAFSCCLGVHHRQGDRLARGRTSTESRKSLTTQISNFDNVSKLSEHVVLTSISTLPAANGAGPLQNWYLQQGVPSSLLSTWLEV
Particulars: cited from earlier work.

SMILES strings stand for the structures. Like-named read-outs stand apart in the source and are kept apart here.

`COC(=O)N1CCC[C@H](NS(C)(=O)=O)[C@@H]1CO[C@H]1CC[C@@H](c2ccccc2)CC1` [TAK-925]: at OX2R [1], the cataplexy result is listed as “trends for decreasing cataplexy” and the wakefulness entry was “substantial levels of increased wakefulness”. In addition, the wakefulness entry on OX2R [2] (subcutaneous administration, WT mice) was “modestly increased wakefulness”.

For the compound `COc1ccc(-c2cccc(C(=O)N(C)C)c2)cc1S(=O)(=O)Nc1cccc(NCCNC(=O)c2ccccc2N(C)C)c1` [YNT-185], the “sleep-onset REM periods and cataplexy-like events” value at OX2R [2] (intraperitoneally or ICV, NT1 mouse model) is “decrease sleep-onset REM periods and cataplexy-like events”. Also, the wakefulness result on OX2R [2] (intraperitoneally or ICV, wild type (WT) and orexin ligand-deficient mice) is reported as “modestly increases wakefulness”.
